Each compound was assayed against T1, ENaC (Homo sapiens, UniProt P37088+P51168+P51170) (assay: Short circuit current assay to determine ENaC blocker potency in human bronchial epithelial cells). Details: 50% inhibition of total amiloride-sensitive ISC, apical addition, read-out: Averages.ENaC IC50 (nM) Avg.
T1 construct: host or cells: primary human bronchial epithelial cells (HBECs) differentiated at air-liquid interface
T1 sequence (P37088 1-669): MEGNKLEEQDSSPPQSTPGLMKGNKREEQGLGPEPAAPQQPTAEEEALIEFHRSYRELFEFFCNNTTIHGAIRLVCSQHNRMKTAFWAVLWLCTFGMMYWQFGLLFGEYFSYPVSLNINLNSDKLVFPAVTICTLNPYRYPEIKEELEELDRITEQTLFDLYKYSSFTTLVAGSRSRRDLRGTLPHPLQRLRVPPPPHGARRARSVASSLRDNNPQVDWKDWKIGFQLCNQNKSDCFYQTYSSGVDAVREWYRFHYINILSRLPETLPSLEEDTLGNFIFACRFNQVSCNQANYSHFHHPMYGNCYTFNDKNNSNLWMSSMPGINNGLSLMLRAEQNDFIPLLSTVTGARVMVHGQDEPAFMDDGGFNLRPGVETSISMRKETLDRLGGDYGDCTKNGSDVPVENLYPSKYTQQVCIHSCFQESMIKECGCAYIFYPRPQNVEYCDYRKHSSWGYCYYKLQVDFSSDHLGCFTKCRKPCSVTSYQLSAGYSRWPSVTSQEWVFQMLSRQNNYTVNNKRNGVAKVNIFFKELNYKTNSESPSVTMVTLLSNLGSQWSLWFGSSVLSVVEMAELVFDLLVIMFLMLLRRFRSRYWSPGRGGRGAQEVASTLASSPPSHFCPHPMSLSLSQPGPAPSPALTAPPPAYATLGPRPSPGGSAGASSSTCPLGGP
T1 sequence (P51168 1-640): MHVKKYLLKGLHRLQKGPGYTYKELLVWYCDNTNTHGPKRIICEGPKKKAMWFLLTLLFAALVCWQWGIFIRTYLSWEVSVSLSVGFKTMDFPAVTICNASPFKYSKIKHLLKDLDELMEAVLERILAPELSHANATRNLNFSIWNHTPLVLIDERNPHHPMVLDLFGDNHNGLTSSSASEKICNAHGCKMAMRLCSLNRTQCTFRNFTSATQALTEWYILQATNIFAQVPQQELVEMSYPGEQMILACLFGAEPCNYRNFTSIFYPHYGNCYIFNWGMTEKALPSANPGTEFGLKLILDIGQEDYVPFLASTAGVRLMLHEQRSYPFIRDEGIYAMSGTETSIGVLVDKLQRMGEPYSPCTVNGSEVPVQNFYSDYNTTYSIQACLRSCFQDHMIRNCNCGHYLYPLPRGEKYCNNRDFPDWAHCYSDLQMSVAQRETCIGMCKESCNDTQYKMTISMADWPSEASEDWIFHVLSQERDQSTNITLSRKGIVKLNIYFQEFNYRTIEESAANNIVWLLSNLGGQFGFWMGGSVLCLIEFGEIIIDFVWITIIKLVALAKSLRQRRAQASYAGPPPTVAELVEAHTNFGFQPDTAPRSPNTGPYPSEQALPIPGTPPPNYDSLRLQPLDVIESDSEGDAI
T1 sequence (P51170 1-649): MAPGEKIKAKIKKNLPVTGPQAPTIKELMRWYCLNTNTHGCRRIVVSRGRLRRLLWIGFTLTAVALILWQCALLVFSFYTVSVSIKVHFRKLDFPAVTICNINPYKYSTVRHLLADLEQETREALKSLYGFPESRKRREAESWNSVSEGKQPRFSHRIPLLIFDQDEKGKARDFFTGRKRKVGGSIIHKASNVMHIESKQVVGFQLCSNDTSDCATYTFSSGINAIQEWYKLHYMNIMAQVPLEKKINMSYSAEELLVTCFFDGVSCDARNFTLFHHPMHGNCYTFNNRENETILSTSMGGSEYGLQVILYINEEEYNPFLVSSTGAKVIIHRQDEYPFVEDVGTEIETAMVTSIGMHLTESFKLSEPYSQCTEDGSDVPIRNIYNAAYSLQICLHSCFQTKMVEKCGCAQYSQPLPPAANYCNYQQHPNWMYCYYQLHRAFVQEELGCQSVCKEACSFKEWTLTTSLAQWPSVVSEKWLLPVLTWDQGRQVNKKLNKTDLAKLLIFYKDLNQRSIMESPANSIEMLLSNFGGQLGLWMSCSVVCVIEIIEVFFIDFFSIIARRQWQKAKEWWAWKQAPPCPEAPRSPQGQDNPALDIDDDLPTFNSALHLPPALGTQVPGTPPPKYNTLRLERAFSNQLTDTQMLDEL
Type: cell-based
Method: Example 68—Short circuit current assay to determine ENaC blocker potency in human bronchial epithelial cells
Human bronchial epithelial cells (HBECs) (Lonza, UK) were cultured using a modification of the method described by Coote et al, (2008). Cells were seeded into plastic T-75 flasks and grown in Bronchial Epithelial Cell Growth Medium (BEGM) (Lonza, UK) supplemented with bovine pituitary extract (52 ng/mL), hydrocortisone (0.5 μg/mL), human recombinant Epidermal Growth Factor (0.5 ng/mL), epinephrine (0.5 ng/mL), transferrin (10 ng/mL), insulin (5 ng/mL), retinoic acid (0.1 ng/mL), triiodothyronine (6.5 ng/mL), gentamycin (50 μg/mL) and amphotericin-B (50 ng/mL). Medium was changed every 48 hours until cells were 90% confluent. Cells were then passaged and seeded (8.25×10^5 cells/insert) onto polycarbonate Snapwell™ inserts (Costar, UK) in differentiation media containing 50% DMEM in BGEM with the same supplements as above but without triiodothyronine and a final retinoic acid concentration of 50 nM (all-trans retinoic acid; Sigma-Aldrich, UK). Cells were maintained submerged for the first 7 days in culture after which time they were exposed to an apical air interface for the remainder of the culture period. From the first day of establishment of an ALI, HBEC were fed with a DMEM:HAMS F-12 (1:1) media containing 2% Ultroser G (Pall BioSepra, France) with gentamycin (50 μg/mL) and amphotericin B (50 ng/mL). Cells were used for short-circuit current assay between days 14-21 after the establishment of the ALI. At all stages of culture, cells were maintained at 37° C. in 5% CO2 in an air incubator.
Short-Circuit Current (ISC) Measurements
Snapwell inserts were mounted in Costar Vertical Diffusion Chambers (Costar, UK) and were bathed with continuously gassed Ringer solution (5% CO2 in O2; pH 7.4) maintained at 37° C. containing (in mM): 120 NaCl, 25 NaHCO3, 3.3 KH2PO4, 0.8 K2HPO4, 1.2 CaCl2, 1.2 MgCl2 and 10 glucose. The solution osmolarity was always between 280-300 mOsm/kg H2O for all physiological salt solutions used. Cells were voltage clamped to 0 mV (model EVC4000, WPI). Transepithelial resistance (RT) was measured by applying a 2 mV pulse at 30 s intervals and calculating RT by Ohm's law. Data were recorded using a PowerLab workstation (ADlnstruments, UK).
ENaC blocker compounds were added to the apical chamber from a 1000-fold stock solution (prepared in DMSO) to achieve a cumulative concentration response in terms of the inhibition of the basal ISC. At the completion of the concentration response, a supra-maximal concentration of amiloride (10 μM) was added. The concentration of test compound that induced a 50% inhibition of the total amiloride-sensitive ISC (IC50) was calculated using GraphPad Prism v6.05. The results are presented in Table 2, from which it can be seen that the compounds of the present invention have ENaC inhibiting activity.

| SMILES | IC50 |
| --- | --- |
| CCn1c(CNC(=O)c2nc3cc[nH]c3nc2N)[n+](CCOCCOCCO)c2ccc(OC)cc21 [Example 14, 2-[({3-amino-5H-pyrrolo[2,3-b]pyrazin-2-yl}formamido)methyl]-1-ethyl-3-{2-[2-(2-hydroxyethoxy)ethoxy]ethyl}-6-methoxy-1H-1,3-benzodiazol-3-ium] | 11 nM |
| C[n+]1c(CNC(=O)c2nc3cc[nH]c3nc2N)n(Cc2ccccc2)c2ccccc21 [Example 15, 2-[({3-amino-5H-pyrrolo[2,3-b]pyrazin-2-yl}formamido)methyl]-1-benzyl-3-methyl-1H-1,3-benzodiazol-3-ium] | 198 nM |
| CCn1c(CNC(=O)c2nc3cc[nH]c3nc2N)[n+](Cc2ccccc2)c2ccc(C(F)(F)F)cc21 [Example 17, 2-[({3-amino-5H-pyrrolo[2,3-b]pyrazin-2-yl}formamido)methyl]-3-benzyl-1-ethyl-6-(trifluoromethyl)-1H-1,3-benzodiazol-3-ium] | 15 nM |
| Nc1nc2[nH]ccc2nc1C(=O)NCc1n(CC(=O)N2CCCCC2)c2ccccc2[n+]1Cc1ccccc1 [Example 18, 2-[({3-amino-5H-pyrrolo[2,3-b]pyrazin-2-yl}formamido)methyl]-3-benzyl-1-[2-oxo-2-(piperidin-1-yl)ethyl]-1H-1,3-benzodiazol-3-ium] | 5450 nM |
| CCn1c(CNC(=O)c2nc3cc(C)[nH]c3nc2N)[n+](C)c2ccc(OC)cc21 [Example 19, 2-[({3-amino-6-methyl-5H-pyrrolo[2,3-b]pyrazin-2-yl}formamido)methyl]-1-ethyl-6-methoxy-3-methyl-1H-1,3-benzodiazol-3-ium] | 8 nM |
| CCn1c(CNC(=O)c2nc3cc[nH]c3nc2N)[n+](CC)c2ccc(OCCNC(=O)OC(C)(C)C)cc21 [Example 22, 2-[({3-amino-5H-pyrrolo[2,3-b]pyrazin-2-yl}formamido)methyl]-6-(2-{[(tert-butoxy)carbonyl]amino}ethoxy)-1,3-diethyl-1H-1,3-benzodiazol-3-ium] | 8 nM |
| CCn1c(CNC(=O)c2nc3cc[nH]c3nc2N)[n+](CC)c2ccc(OCCCNC(=O)OC(C)(C)C)cc21 [Example 23, 2-[({3-amino-5H-pyrrolo[2,3-b]pyrazin-2-yl}formamido)methyl]-6-(3-{[(tert-butoxy)carbonyl]amino}propoxy)-1,3-diethyl-1H-1,3-benzodiazol-3-ium] | 4 nM |
| CCn1c(CNC(=O)c2nc3cc[nH]c3nc2N)[n+](CC)c2ccc(CCCNC(=O)OC(C)(C)C)cc21 [Example 24, 2-[({3-amino-5H-pyrrolo[2,3-b]pyrazin-2-yl}formamido)methyl]-6-(3-{[(tert-butoxy)carbonyl]amino}propyl)-1,3-diethyl-1H-1,3-benzodiazol-3-ium] | 6 nM |
| CCn1c(CNC(=O)c2nc3cc[nH]c3nc2N)[n+](CC)c2ccc(C3CCN(C(=O)OC(C)(C)C)CC3)cc21 [Example 25, 2-[({3-amino-5H-pyrrolo[2,3-b]pyrazin-2-yl}formamido)methyl]-6-{1-[(tert-butoxy)carbonyl]piperidin-4-yl}-1,3-diethyl-1H-1,3-benzodiazol-3-ium] | 2 nM |
| CCn1c(CNC(=O)c2nc3cc[nH]c3nc2N)[n+](CC)c2ccc(-c3cnn(C4CCN(C(=O)OC(C)(C)C)CC4)c3)cc21 [Example 26, 2-[({3-amino-5H-pyrrolo[2,3-b]pyrazin-2-yl}formamido)methyl]-6-(1-{1-[(tert-butoxy)carbonyl]piperidin-4-yl}-1H-pyrazol-4-yl)-1,3-diethyl-1H-1,3-benzodiazol-3-ium] | 1 nM |

More lines, now with the values ahead:

| IC50 | SMILES |
| --- | --- |
| 10 nM | CCn1c(CNC(=O)c2nc3cc[nH]c3nc2N)[n+](Cc2ccccc2)c2ccc(Cl)cc21 [Example 16, 2-[({3-amino-5H-pyrrolo[2,3-b]pyrazin-2-yl}formamido)methyl]-3-benzyl-6-chloro-1-ethyl-1H-1,3-benzodiazol-3-ium] |
| 4 nM | CCn1c(CNC(=O)c2nc3c(C)c[nH]c3nc2N)[n+](CC)c2ccc(Cl)cc21 [Example 20, 2-[({3-amino-7-methyl-5H-pyrrolo[2,3-b]pyrazin-2-yl}formamido)methyl]-6-chloro-1,3-diethyl-1H-1,3-benzodiazol-3-ium] |
| 2 nM | CCn1c(CNC(=O)c2nc3c(Cl)c[nH]c3nc2N)[n+](CC)c2ccc(Cl)cc21 [Example 21, 2-[({3-amino-7-chloro-5H-pyrrolo[2,3-b]pyrazin-2-yl}formamido)methyl]-6-chloro-1,3-diethyl-1H-1,3-benzodiazol-3-ium] |
| 14 nM | CCn1c(CNC(=O)c2nc3cc[nH]c3nc2N)[n+](CC)c2ccc(OCCN)cc21 [Example 27, 2-[({3-amino-5H-pyrrolo[2,3-b]pyrazin-2-yl}formamido)methyl]-6-(2-aminoethoxy)-1,3-diethyl-1H-1,3-benzodiazol-3-ium] |
| 7 nM | CCn1c(CNC(=O)c2nc3cc[nH]c3nc2N)[n+](CC)c2ccc(OCCCN)cc21 [Example 28, 2-[({3-amino-5H-pyrrolo[2,3-b]pyrazin-2-yl}formamido)methyl]-6-(3-aminopropoxy)-1,3-diethyl-1H-1,3-benzodiazol-3-ium] |

— US12371436B2, “Substituted benzodiazoliums as ENaC inhibitors” (ENTERPRISE THERAPEUTICS LIMITED, priority 2016, dated 2025)
